Test systems include OVCAR-4; HOP-92; COLO 205; LOX IMVI; Malme-3M; EKVX; A498; MDA-MB-231; OVCAR-5; HOP-62; HCC 2998; IGROV-1; UO-31; MOLT-4; A549; SF-539; MCF7; PC-3; UACC-62; U-251.
Common to all, as to experiment: growth of human tumour cells (NCI), 48 h

Each structure is given as a SMILES string.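 Exposure lasted 48 hours, with cells grown in 96-well plates and compounds tested at five concentrations. At the GI50, growth is halved.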 Activity calls are given as the source filed them. No stated cut-off is given here; in the data, active = GI50 up to about 1.1 µM and inactive = higher. Some results are limits rather than exact numbers.

Consider `Nc1nc(N)c(-c2cccc(C(F)(F)F)c2)c(Cc2cccc(C(F)(F)F)c2)n1`, for which the GI50 in the assay on OVCAR-4 was 12.2 µM (inactive); in the assay on HOP-92, 12.2 µM (inactive); in the assay with COLO 205, 6.27 µM (inactive); in the assay with LOX IMVI, 1.35 µM (inactive); in the assay with Malme-3M, 12.4 µM (inactive); with EKVX, 5.92 µM (inactive). The GI50 is 3.43 µM (inactive) in the assay with A498; 13.1 µM (inactive) in the assay on MDA-MB-231; 3.48 µM (inactive) in the assay with OVCAR-5; 6.05 µM (inactive) with HOP-62; 3.1 µM (inactive) with HCC 2998; 1.91 µM (inactive) in the assay with IGROV-1. For the same compound, the GI50 in the assay with UO-31 was 6.32 µM (inactive); in the assay with MOLT-4 it was 2.9 µM (inactive); in the assay with A549, 0.628 µM (active); in the assay on SF-539 it was 4.41 µM (inactive); in the assay on MCF7, 3.84 µM (inactive); with PC-3 it was 11.7 µM (inactive). For the same compound, the GI50 was 0.693 µM (active) in the assay with UACC-62 and 15.7 µM (inactive) in the assay on U-251.
Take `NCCC1([N+](=O)[O-])CCNCC1`: the GI50 in the assay with OVCAR-4, in the assay with HOP-92, in the assay on COLO 205, in the assay on LOX IMVI, with Malme-3M and in the assay on EKVX was > 100 µM (inactive) throughout. Besides, the GI50 with A498, in the assay on MDA-MB-231, with OVCAR-5, in the assay with HOP-62, in the assay with HCC 2998 and in the assay on IGROV-1 was > 100 µM (inactive) each time. In addition, the GI50 in the assay with UO-31, in the assay on MOLT-4, in the assay on A549, in the assay with SF-539, with MCF7 and in the assay with PC-3 was > 100 µM (inactive) in each case. The GI50 in the assay with UACC-62 and in the assay on U-251 was > 100 µM (inactive) in each case.
As for `COC(=O)/C=C/c1ccc(OP(=O)(O)O)c(OC)c1`, the GI50 with OVCAR-4, in the assay on HOP-92, in the assay with COLO 205, in the assay on LOX IMVI, in the assay with Malme-3M and in the assay with EKVX was > 100 µM (inactive) throughout. Besides, the GI50 in the assay on A498, with MDA-MB-231, in the assay on OVCAR-5, in the assay on HOP-62, in the assay with HCC 2998 and in the assay with IGROV-1 was > 100 µM (inactive) throughout. Besides, the GI50 in the assay with UO-31, in the assay with MOLT-4, in the assay with A549, with SF-539, with MCF7 and with PC-3 was > 100 µM (inactive) in each case. Also, the GI50 with UACC-62 and with U-251 was > 100 µM (inactive) in each case.
Turning to `O=C1c2ccccc2CN1c1ccc(O)cc1`, the GI50 in the assay with OVCAR-4, in the assay on HOP-92, with COLO 205, in the assay with LOX IMVI, with Malme-3M and in the assay on EKVX was > 100 µM (inactive) throughout. In addition, the GI50 with A498, with MDA-MB-231, in the assay on OVCAR-5, with HOP-62, in the assay on HCC 2998 and with IGROV-1 was > 100 µM (inactive) throughout. In addition, the GI50 in the assay on MOLT-4, with A549, in the assay on SF-539, with MCF7, in the assay with PC-3 and with UACC-62 was > 100 µM (inactive) in each case. In addition, the GI50 with U-251 is > 100 µM (inactive).
As to `CC(=O)NC1C(OCc2ccccc2)OC(CO)C(O)C1OC(C)C(=O)N[C@@H](C)C(=O)N[C@H](CCC(=O)NCCNCCNc1c2ccccc2nc2cccc([N+](=O)[O-])c12)C(N)=O` (stereo partly specified), the GI50 is 0.0228 µM (active) in the assay with OVCAR-4; 0.0244 µM (active) in the assay on HOP-92; < 0.0112 µM (active) in the assay with COLO 205; 0.136 µM (active) in the assay with LOX IMVI; 0.043 µM (active) with Malme-3M; 0.199 µM (active) with EKVX. The GI50 with A498 is 0.137 µM (active); in the assay with MDA-MB-231, 0.177 µM (active); in the assay with OVCAR-5, 0.336 µM (active); in the assay on HOP-62, 0.192 µM (active); in the assay on HCC 2998, 0.0152 µM (active); with IGROV-1, 0.0385 µM (active). The GI50 is 0.24 µM (active) in the assay with UO-31; 0.0935 µM (active) in the assay on MOLT-4; 0.0244 µM (active) with A549; 0.0982 µM (active) in the assay with SF-539; < 0.0195 µM (active) in the assay on MCF7; 0.0321 µM (active) with PC-3. For the same compound, the GI50 with UACC-62 was 0.0659 µM (active); in the assay with U-251 it was 0.0944 µM (active).
For `O=C(NC1CCCCC1NC(c1ccccc1)(c1ccccc1)c1ccccc1)C(=O)NC1CCCCC1NC(c1ccccc1)(c1ccccc1)c1ccccc1` (stereo unspecified), the GI50 in the assay on OVCAR-4 was 22.6 µM (inactive); in the assay with HOP-92, 10.5 µM (inactive); in the assay with COLO 205, > 100 µM (inactive); in the assay with LOX IMVI it was > 100 µM (inactive); in the assay with Malme-3M it was > 100 µM (inactive); with EKVX, 67.3 µM (inactive). In addition, the GI50 is 28.9 µM (inactive) with A498; > 100 µM (inactive) in the assay with MDA-MB-231; > 100 µM (inactive) in the assay with OVCAR-5; 27.5 µM (inactive) with HOP-62; > 100 µM (inactive) in the assay on HCC 2998; 69.2 µM (inactive) in the assay on IGROV-1. The GI50 in the assay on UO-31 is 43.6 µM (inactive); in the assay on MOLT-4, > 100 µM (inactive); in the assay with A549, > 100 µM (inactive); in the assay with SF-539, 51.2 µM (inactive); in the assay with MCF7 it was > 100 µM (inactive); in the assay with PC-3, > 100 µM (inactive). The GI50 in the assay with UACC-62 was > 10 µM (inactive); in the assay on U-251, 21 µM (inactive).
`Fc1cc(F)c(F)c(S)c1F`: the GI50 in the assay with OVCAR-4 was 62.4 µM (inactive); in the assay with HOP-92 it was > 100 µM (inactive); in the assay with COLO 205 it was > 100 µM (inactive); with LOX IMVI, > 100 µM (inactive); with Malme-3M, > 100 µM (inactive); in the assay with EKVX, 25.9 µM (inactive). Further, the GI50 was 17.5 µM (inactive) in the assay with A498; 22.1 µM (inactive) with MDA-MB-231; > 100 µM (inactive) in the assay on OVCAR-5; > 100 µM (inactive) in the assay with HOP-62; 34.4 µM (inactive) in the assay with HCC 2998; > 100 µM (inactive) in the assay on IGROV-1. Moreover, the GI50 in the assay on UO-31 is > 100 µM (inactive); in the assay with MOLT-4, 23.8 µM (inactive); in the assay on A549 it was 36.6 µM (inactive); in the assay on SF-539 it was > 100 µM (inactive); in the assay on MCF7, > 100 µM (inactive); in the assay with PC-3 it was 19.8 µM (inactive). In addition, the GI50 in the assay on UACC-62 and in the assay on U-251 was > 100 µM (inactive) in each case.
Turning to `CN(C)c1ccc(-c2c(C#N)c(-c3ccccc3)n(NS(=O)(=O)c3ccccc3)c(=O)c2C#N)cc1`, the GI50 was > 100 µM (inactive) with OVCAR-4; 28.9 µM (inactive) in the assay with HOP-92; > 100 µM (inactive) in the assay on COLO 205; 37.4 µM (inactive) in the assay with LOX IMVI; 40.1 µM (inactive) in the assay with Malme-3M; 67.5 µM (inactive) with EKVX. Also, the GI50 is 57 µM (inactive) with A498; 88.1 µM (inactive) with MDA-MB-231; > 100 µM (inactive) with OVCAR-5; 38.8 µM (inactive) in the assay with HOP-62; 30.1 µM (inactive) in the assay on HCC 2998; 40.8 µM (inactive) with IGROV-1. For the same compound, the GI50 in the assay with MOLT-4 was 20.7 µM (inactive); with A549, 42.9 µM (inactive); in the assay on SF-539, 33.3 µM (inactive); in the assay on MCF7 it was 40.7 µM (inactive); with PC-3, 26.9 µM (inactive); in the assay on UACC-62, 43.3 µM (inactive). In the assay on U-251, the GI50 is 50.7 µM (inactive).
Consider `CCOC(=O)CCC(NC(=O)c1ccc(Nc2nc3ccccc3nc2C(=O)OCC)s1)C(=O)OCC` (stereo unspecified), for which the GI50 in the assay with OVCAR-4 is 37.2 µM (inactive); in the assay with HOP-92, > 100 µM (inactive); in the assay on COLO 205, > 100 µM (inactive); in the assay with LOX IMVI, > 100 µM (inactive); with Malme-3M it was > 100 µM (inactive); with EKVX, > 100 µM (inactive). Also, the GI50 with A498 is > 100 µM (inactive); with MDA-MB-231, 67.1 µM (inactive); in the assay with OVCAR-5, > 100 µM (inactive); in the assay on HCC 2998 it was > 100 µM (inactive); in the assay with IGROV-1 it was > 100 µM (inactive); in the assay with UO-31, > 100 µM (inactive). Besides, the GI50 is > 100 µM (inactive) with MOLT-4; 88.1 µM (inactive) in the assay with A549; 63.4 µM (inactive) with SF-539; > 100 µM (inactive) in the assay with MCF7; > 100 µM (inactive) with PC-3; 59.2 µM (inactive) in the assay with UACC-62. The GI50 with U-251 was > 100 µM (inactive).
On to `O=C(O)CCC(NC(=O)/C(=C/c1ccccc1)NC(=O)c1ccccc1)C(=O)O` (stereo unspecified), for which the GI50 in the assay with OVCAR-4, in the assay on HOP-92, in the assay with COLO 205, in the assay on LOX IMVI, with Malme-3M and in the assay on EKVX was > 100 µM (inactive) in each case. Moreover, the GI50 in the assay with A498, with MDA-MB-231, in the assay with OVCAR-5, in the assay on HOP-62, in the assay on HCC 2998 and in the assay with IGROV-1 was > 100 µM (inactive) each time. Further, the GI50 in the assay with UO-31, with MOLT-4, with A549, in the assay on SF-539, with MCF7 and in the assay on PC-3 was > 100 µM (inactive) in each case. In the assay with UACC-62, the GI50 is > 100 µM (inactive).

Source of the values: ChEMBL document CHEMBL1201862, “PubChem BioAssay data set” (2004).
